Assay results: the supplement of paper PMC7840683
Where a name gives a salt, the structure may show the parent alone. ± gives the standard deviation of the averaged measurements.

Tested on: HepaRG
Experiment: LDH release cytotoxicity, % of total lysis control; higher = more cytotoxic
Conditions: 48 h
Summary of the method: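 The CytoTox-ONE kit was used to read LDH in 50 µL spent medium as resorufin fluorescence on a Tecan Safire, with 0.1% Triton X added to total lysis wells. Beforehand, single-lot HepaRG cells on collagen I-coated 96-well plates had been exposed in duplicate for 48 h to eight-point half-log series (top 100 µM) in serum-free induction medium containing 0.5% DMSO. Percent cytotoxicity was normalized against on-plate vehicle and total lysis controls and averaged over duplicates.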

SMILES: CCCCCCCC[Si](OCC)(OCC)OCC [Triethoxyoctylsilane]
- LDH release cytotoxicity (0.03162 µM): -0.684 ± 0.49%
- LDH release cytotoxicity (0.1 µM): 0.171 ± 0.31%
- LDH release cytotoxicity (0.3162278 µM): -0.00576 ± 0.17%
- LDH release cytotoxicity (1 µM): -0.327 ± 0.22%
- LDH release cytotoxicity (3.16228 µM): 0.39 ± 0.57%
- LDH release cytotoxicity (10 µM): 0.433 ± 0.79%
- LDH release cytotoxicity (31.6228 µM): 0.376 ± 0.72%
- LDH release cytotoxicity (100 µM): 1.59 ± 0.21%

SMILES: CCOC(=O)CC(O)(CC(=O)OCC)C(=O)OCC [Triethyl citrate]
- LDH release cytotoxicity (0.03162 µM): -0.555 ± 0.32%
- LDH release cytotoxicity (0.1 µM): -0.568 ± 0.47%
- LDH release cytotoxicity (0.3162278 µM): 0.176 ± 0.48%
- LDH release cytotoxicity (1 µM): -0.693 ± 0.16%
- LDH release cytotoxicity (3.16228 µM): -0.115 ± 0.89%
- LDH release cytotoxicity (10 µM): 0.0535 ± 0.21%
- LDH release cytotoxicity (31.6228 µM): -0.467 ± 0.89%
- LDH release cytotoxicity (100 µM): 1.14 ± 0.85%

SMILES: CCCCC(CC)C(=O)OCCOCCOCCOC(=O)C(CC)CCCC (configuration not stated) [Triethylene glycol bis(2-ethylhexanoate)]
- LDH release cytotoxicity (0.03162 µM): -2.57 ± 0.42%
- LDH release cytotoxicity (0.1 µM): -3.93 ± 0.075%
- LDH release cytotoxicity (0.3162278 µM): -3.45 ± 0.14%
- LDH release cytotoxicity (1 µM): -3.69 ± 0.87%
- LDH release cytotoxicity (3.16228 µM): -3.81 ± 1.2%
- LDH release cytotoxicity (10 µM): -4.01 ± 1.4%
- LDH release cytotoxicity (31.6228 µM): -5.53 ± 4%
- LDH release cytotoxicity (100 µM): -1.89 ± 0.23%

SMILES: CC(=O)OCCOCCOCCOC(C)=O [Triethylene glycol diacetate]
- LDH release cytotoxicity (0.03162 µM): -2%
- LDH release cytotoxicity (0.1 µM): -1.98 ± 0.077%
- LDH release cytotoxicity (0.3162278 µM): -1.83 ± 0.78%
- LDH release cytotoxicity (1 µM): -1.55 ± 0.41%
- LDH release cytotoxicity (3.16228 µM): 0.0849 ± 2%
- LDH release cytotoxicity (10 µM): -1.35 ± 0.28%
- LDH release cytotoxicity (31.6228 µM): -0.553 ± 0.033%
- LDH release cytotoxicity (100 µM): 1.55 ± 0.07%

SMILES: COCCOCCOCCOC [Triethylene glycol dimethyl ether]
- LDH release cytotoxicity (0.03162 µM): -0.0874 ± 2%
- LDH release cytotoxicity (0.1 µM): -4.26 ± 1.7%
- LDH release cytotoxicity (0.3162278 µM): -4.61 ± 0.24%
- LDH release cytotoxicity (1 µM): -3.35 ± 0.35%
- LDH release cytotoxicity (3.16228 µM): -3.81 ± 0.89%
- LDH release cytotoxicity (10 µM): -3.38 ± 0.75%
- LDH release cytotoxicity (31.6228 µM): -2.47 ± 1.8%
- LDH release cytotoxicity (100 µM): 1.14 ± 1.8%

SMILES: OCCOCCOCCO [Triethylene glycol]
- LDH release cytotoxicity (0.03162 µM): -0.151 ± 1%
- LDH release cytotoxicity (0.1 µM): -1.04 ± 0.017%
- LDH release cytotoxicity (0.3162278 µM): -0.871 ± 0.11%
- LDH release cytotoxicity (1 µM): -1.23 ± 0.56%
- LDH release cytotoxicity (3.16228 µM): -1.32 ± 0.055%
- LDH release cytotoxicity (10 µM): -0.871 ± 0.14%
- LDH release cytotoxicity (31.6228 µM): -1.1 ± 0.18%
- LDH release cytotoxicity (100 µM): 0.204 ± 0.36%

SMILES: CON=C(C(=O)OC)c1ccccc1CON=C(C)c1cccc(C(F)(F)F)c1 [Trifloxystrobin]
- LDH release cytotoxicity (0.03162 µM): -0.083 ± 0.59%
- LDH release cytotoxicity (0.1 µM): -0.478 ± 0.33%
- LDH release cytotoxicity (0.3162278 µM): -0.545 ± 0.8%
- LDH release cytotoxicity (1 µM): 0.0357 ± 0.72%
- LDH release cytotoxicity (3.16228 µM): -0.301 ± 0.36%
- LDH release cytotoxicity (10 µM): 0.277 ± 0.53%
- LDH release cytotoxicity (31.6228 µM): 0.163 ± 1.6%
- LDH release cytotoxicity (100 µM): 1.57 ± 1.4%

SMILES: COc1cc(OC)nc(NC(=O)NS(=O)(=O)c2ncccc2OCC(F)(F)F)n1 [Trifloxysulfuron-sodium]
- LDH release cytotoxicity (0.03162 µM): -1.39 ± 0.15%
- LDH release cytotoxicity (0.1 µM): -0.662 ± 0.68%
- LDH release cytotoxicity (0.3162278 µM): -1.7 ± 1.1%
- LDH release cytotoxicity (1 µM): -1.75 ± 1.3%
- LDH release cytotoxicity (3.16228 µM): -1.37 ± 0.17%
- LDH release cytotoxicity (10 µM): -1.12 ± 0.68%
- LDH release cytotoxicity (31.6228 µM): -1.62 ± 0.26%
- LDH release cytotoxicity (100 µM): 0.885 ± 0.33%

SMILES: CCCOCC(=Nc1ccc(Cl)cc1C(F)(F)F)n1ccnc1 [Triflumizole]
- LDH release cytotoxicity (0.03162 µM): -0.709 ± 0.69%
- LDH release cytotoxicity (0.1 µM): -1.15 ± 0.39%
- LDH release cytotoxicity (0.3162278 µM): -0.687 ± 0.077%
- LDH release cytotoxicity (1 µM): -0.497 ± 0.18%
- LDH release cytotoxicity (3.16228 µM): -0.543 ± 1%
- LDH release cytotoxicity (10 µM): -0.414 ± 0.008%
- LDH release cytotoxicity (31.6228 µM): -0.332 ± 0.2%
- LDH release cytotoxicity (100 µM): 0.335 ± 0.21%

SMILES: CCCN(CCC)c1c([N+](=O)[O-])cc(C(F)(F)F)cc1[N+](=O)[O-] [Trifluralin]
- LDH release cytotoxicity (0.03162 µM): -4.73 ± 0.13%
- LDH release cytotoxicity (0.1 µM): -5.31 ± 0.81%
- LDH release cytotoxicity (0.3162278 µM): -5.66 ± 0.27%
- LDH release cytotoxicity (1 µM): -6.43 ± 1.1%
- LDH release cytotoxicity (3.16228 µM): -5.85 ± 1.3%
- LDH release cytotoxicity (10 µM): -6.17 ± 0.86%
- LDH release cytotoxicity (31.6228 µM): -2.1 ± 0.44%
- LDH release cytotoxicity (100 µM): 66.3 ± 2.5%

SMILES: CC(C)CCCCCCOC(=O)c1ccc(C(=O)OCCCCCCC(C)C)c(C(=O)OCCCCCCC(C)C)c1 [Triisononyl trimellitate]
- LDH release cytotoxicity (0.031623 µM): -0.391 ± 0.73%
- LDH release cytotoxicity (0.1 µM): -0.474 ± 2.8%
- LDH release cytotoxicity (0.316228 µM): -1.59 ± 0.86%
- LDH release cytotoxicity (1 µM): -2.21 ± 1.3%
- LDH release cytotoxicity (3.16228 µM): -2.67 ± 0.91%
- LDH release cytotoxicity (10 µM): -1.83 ± 1.2%
- LDH release cytotoxicity (31.6228 µM): -0.993 ± 1.1%
- LDH release cytotoxicity (100 µM): 0.476 ± 0.49%

SMILES: O=P(Oc1ccccc1)(Oc1ccccc1)Oc1ccccc1 [Triphenyl phosphate]
- LDH release cytotoxicity (0.03162 µM): 0.948 ± 2%
- LDH release cytotoxicity (0.1 µM): -1.27 ± 1.3%
- LDH release cytotoxicity (0.3162278 µM): -1.47 ± 0.34%
- LDH release cytotoxicity (1 µM): -1.41 ± 0.43%
- LDH release cytotoxicity (3.16228 µM): -0.353 ± 0.53%
- LDH release cytotoxicity (10 µM): 0.138 ± 0.49%
- LDH release cytotoxicity (31.6228 µM): 2.03 ± 0.5%
- LDH release cytotoxicity (100 µM): 27.1 ± 4.3%

SMILES: c1ccc(OP(Oc2ccccc2)Oc2ccccc2)cc1 [Triphenyl phosphite]
- LDH release cytotoxicity (0.03162 µM): -1.51 ± 2.2%
- LDH release cytotoxicity (0.1 µM): -1.17 ± 0.097%
- LDH release cytotoxicity (0.3162278 µM): -1.23 ± 0.038%
- LDH release cytotoxicity (1 µM): -1.46 ± 0.046%
- LDH release cytotoxicity (3.16228 µM): -0.429 ± 0.71%
- LDH release cytotoxicity (10 µM): -1.22 ± 0.2%
- LDH release cytotoxicity (31.6228 µM): -1.26 ± 0.45%
- LDH release cytotoxicity (100 µM): 1.56 ± 0.67%

SMILES: [OH-].c1cc[c]([Sn+]([c]2ccccc2)[c]2ccccc2)cc1 [Triphenyltin hydroxide]
- LDH release cytotoxicity (0.03162 µM): -0.226 ± 1.2%
- LDH release cytotoxicity (0.1 µM): -1.04 ± 0.92%
- LDH release cytotoxicity (0.3162278 µM): -0.513 ± 0.71%
- LDH release cytotoxicity (1 µM): 46.3 ± 2.9%
- LDH release cytotoxicity (3.16228 µM): 68.1 ± 5.3%
- LDH release cytotoxicity (10 µM): 57.1 ± 7.2%
- LDH release cytotoxicity (31.6228 µM): 63.5 ± 2.9%
- LDH release cytotoxicity (100 µM): 64.4 ± 3.7%
